Entries after “also recorded” stand apart in the source; their conditions may differ.
Legend:
Type in all cases: physicochemical
[1] = Dye solution spectra of Ni-dye complexes (Table I); settings: 3:1 dioxane:water, pH 7, excess nickel ion
From the text: (§1) The receiver was removed from the dye solution, washed in distilled water, placed in a pH 7.0 buffer solution and dried. Transmission spectra obtained on each sample of the mordanted dyes were normalized by computer to a density of 1.0. The characteristic wavelength of the dye, λ1/2 in nm, is the mean of the wavelength limits of the absorption envelope at half the maximum density. The HBW ("half band width") in nm is the range or distance between those limits. The dye solution spectrum in 3:1 dioxane:water at pH 7 in the presence of excess nickel ion is also given.

[2] = Transmission spectra of mordanted dyes on receiving element (Table I); settings: unmetallized dye; nickel sulfate layer/poly(4-vinylpyridine) mordant receiver; pH 7.0
Method: (§2) A receiving element was prepared comprising a poly(ethylene terephthalate) film support having thereon a nickel sulfate hexahydrate (0.58 g/m^2)/gelatin (1.08 g/m^2) metal complexing layer, and a poly(4-vinylpyridine)/gelatin mordant layer (each at 2.15 g/m^2), which forms metal complexes with the unmetallized dyes. […]
as §1

[3] = Light stability of mordanted dyes (HID fade, Table I); settings: unmetallized dye; nickel layer/poly(4-vinylpyridine) receiver; 10 days HID, 50,000 lux, 38° C., pH 7
Method: as §2
The above receiving elements at pH 7 were then subjected to 10 days irradiation by a high intensity daylight (HID), 6000 W Xenon arc lamp, the sample receiving 50,000 lux through a Wratten 2B (ultraviolet) filter at approximately 38° C. and low humidity. The percent fade represents the loss in density at λmax after irradiation.

[4] = Dye diffusion, solution test; settings: 0.0025M dye, pH 13.4
From the text: (§3) The released dyes in Table I were also subjected to the conditions of two different dye diffusion tests. One, the "solution test" involved dissolving the dye in a viscous composition and transferring it through a receiving element which contains an opaque and reflecting layer in addition to the mordant layer. The other, a "gel pad test" involved imbibing the dye from solution into a thick gelatin layer, and then transferring it by direct lamination to the same receiving element which had been preswollen by soaking 5 minutes in a solution of 0.1 potassium hydroxide. The receiver for these tests had the following composition (coverages are parenthetically given in g/m^2):
(§4) A transparent poly(ethylene terephthalate) film support coated with
(§5) (1) a mordant layer of poly(styrene-co-N-vinylbenzyl-N-benzyl-N,N-dimethylammonium chloride-co-divinylbenzene) (2.28) and gelatin (2.28);
(§6) (2) an opaque and reflecting layer of carbon black (1.88) in gelatin (1.23) and titanium dioxide (16.1) in gelatin (2.63); and
(§7) (3) an overcoat layer of gelatin (4.3).
Approximately 0.075 mmol of the released dye was dissolved in 10 ml of 0.125N potassium hydroxide. After the dye was completely dissolved, 20 ml of a viscous composition was added; and the resulting solution, stirred for at least 20 minutes, was 0.0025M in dye at a pH of 13.4. The viscous composition was prepared from 46.2 g potassium hydroxide and 54 g carboxymethylcellulose dissolved in 1200 ml water. […] Measurement of the rate of dye diffusion was commenced at the point at which half of the laminate had passed through the rollers. The appearance of dye on the mordant was measured at λmax as diffuse reflection density vs. time. The reflection density was converted to transmission density by computer with the aid of a mathematical relation derived from a previous calibration. A plot of transmission density, which is proportional to concentration vs. time, was derived; and the value of t-1/2 of dye transfer, the time in seconds required to obtain one-half of the maximum transmission density, calculated.

[5] = Comparison with prior art: absorption in dioxane/water with and without nickel ions
Method: In U.S. Pat. No. 4,148,643, Compound J in column 32 is the nickel complex of the following dye compound: [drawing 20] The nickel-dye complex is listed as having a λmax of 462 nm and a half-band width of 76 nm when adsorbed to a cationic polymeric mordant on a film strip. A 1:1 dioxane/water mixture at a pH of 7.0 of this nickel-dye complex was prepared. It absorbed at 444 nm in the presence of excess nickel ions and 402 nm in the absence of nickel ions.
In Table I, Compound C has the following structure: [drawing 21] The compound has a quinoline nitrogen chelating group instead of a hydroxyl chelating group as in Compound J of the '643 patent. A 1:1 dioxane/water mixture at a pH of 7.0 of the above Compound C was prepared. It absorbed at 452 nm in the presence of excess nickel ions and at 387 nm in the absence of nickel ions.

[6] = Dye diffusion, gel pad test
From the text: as §3, §4, §5, §6, §7
A donor element, containing a thick pad of deionized acid-processed gelatin (26 g/m^2) hardened with 2 percent bis(vinylsulfonylmethyl)ether, was imbibed with a solution of 0.1M in potassium hydroxide and 1.3×10^-3 M in dye. […]

[7] = Stability of dye:nickel complex under gel pad transfer conditions; settings: after gel pad diffusion test
Method: A donor element, containing a thick pad of deionized acid-processed gelatin (26 g/m^2) hardened with 2 percent bis(vinylsulfonylmethyl)ether, was imbibed with a solution of 0.1M in potassium hydroxide and 1.3×10^-3 M in dye. The pad was soaked to full penetration, surface wiped, and then laminated in direct contact to the above receiving element which had been presoaked for 5 minutes at 0.1M KOH. The t-1/2 of dye transfer was obtained as in the solution test. The diffusion times by the "gel pad test" are substantially longer than by the "solution test".
When the unmetallized dye ligand of Compound J of the '643 patent and the 1:1 complex thereof were subjected to the gel pad diffusion test as described in Example 1, the values obtained were 66 sec. and 146 sec., respectively.

Spectra of Ni-Dye Complexes, Dye Solution, HBW (half band width) [1] [nm] | Spectra of Ni-Dye Complexes, Dye Solution, λ1/2 [1] [nm] | Spectra of Ni-Dye Complexes, Mordant, HBW (half band width) [2] [nm] | Spectra of Ni-Dye Complexes, Mordant, λ1/2 [2] [nm] | % Fade (loss in density at λmax after irradiation) [3] [%] | Dye Diffusion t1/2, Soln. [4] [s] | absorption wavelength in the presence of excess nickel ions ([5]; 1:1 dioxane/water, pH 7.0, excess nickel ions) [nm] | absorption wavelength in the absence of nickel ions ([5]; 1:1 dioxane/water, pH 7.0, no nickel ions) [nm] | spectrum at reduced nickel ion concentration ([5]; nickel ion at one-half the molar concentration of the dye) | Dye Diffusion t1/2, Gel Pad ([6]; gel pad test, 0.1M KOH, 1.3×10^-3 M dye) [s] | gel pad diffusion test value ([6]; gel pad diffusion test as in Example 1 (comparison with prior art)) [s] | Structure (SMILES) | nature/stability of dye:nickel complex from spectrum ([5]; 0.5 mol Ni^++, listed as Dye C) | spectrum of the dye on the receiver after transfer [7]
68 | 431 | – | – | – | – | – | – | – | – | – | CC(O)=C(C#N)N=Nc1cccc2cccnc12 [A] | – | –
67 | 445 | 70 | 456 | 1.5 | 27 | – | – | – | – | – | CC(O)=C(C#N)N=Nc1ccc(S(N)(=O)=O)c2cccnc12 [B] | – | –
70 | 448 | 74 | 457 | 1.0 | 37 | 452 | 387 | no change in the spectrum | – | – | CC(O)=C(C#N)N=Nc1ccc(S(=O)(=O)Nc2cccc(S(N)(=O)=O)c2)c2cccnc12 [Compound C] | stable 2:1 complex of dye to metal; also recorded: much more stable 2:1 dye:nickel complex than compound J of the '643 patent | –
70 | 451 | 73 | 459 | 8.0 | 39 | – | – | – | – | – | CC(O)=C(C#N)N=Nc1ccc(S(=O)(=O)Nc2cccc(O)c2)c2cccnc12 [D] | – | –
72 | 445 | 69 | 456 | 2.0 | 29 | – | – | – | – | – | CC(C)(C)C(O)=C(C#N)N=Nc1ccc(S(N)(=O)=O)c2cccnc12 [E] | – | –
70 | 446 | 75 | 458 | 2.0 | – | – | – | – | – | – | N#CC(N=Nc1cccc2cccnc12)=C(O)c1ccccc1 [F] | – | –
70 | 460 | 75 | 470 | 1.0 | 27 | – | – | – | – | – | N#CC(N=Nc1ccc(S(N)(=O)=O)c2cccnc12)=C(O)c1ccccc1 [G] | – | –
70 | 450 | 79 | 455 | 3.6 | 40 | – | – | – | – | – | CC(C)(C)C(O)=C(C#N)N=Nc1ccc(S(=O)(=O)Nc2cccc(S(N)(=O)=O)c2)c2cccnc12 [H] | – | –
68 | 451 | 77 | 455 | 7.2 | 34 | – | – | – | 127 | – | CC(O)=C(C#N)N=Nc1ccc(S(=O)(=O)Nc2cccc(C(=O)O)c2)c2cccnc12 [I] | – | –
72 | 435 | 77 | 439 | 1.0 | – | – | – | – | – | – | O=c1c(N=Nc2cccc3cccnc23)c(O)n(-c2ccccc2)n1-c1ccccc1 [L] | – | –
72 | 450 | 77 | 459 | 1.0 | – | – | – | – | – | – | NS(=O)(=O)c1ccc(N=Nc2c(O)n(-c3ccccc3)n(-c3ccccc3)c2=O)c2ncccc12 [M] | – | –
102 | 444 | 116 | 447 | 3.0 | – | – | – | – | – | – | Cc1nn(-c2ccccc2)c(O)c1N=Nc1cccc2cccnc12 [N] | – | –
98 | 429 | 85 | 452 | 0.0 | – | – | – | – | – | – | O=c1oc2ccccc2c(O)c1N=Nc1cccc2cccnc12 [O] | – | –
– | – | – | – | – | – | – | – | – | – | 66 | CC(O)=C(C#N)N=Nc1cc(S(N)(=O)=O)ccc1O [reference compound] | – | showed the presence of the unmetallized dye only

From patent US4481141A, “Nondiffusible yellow metallized azo dye-releasing compounds” (Eastman Kodak Company, priority 1983, dated 1984)
